Results: ChEMBL document CHEMBL2177089, “Novel tetrahydropyrido[1,2-a]isoindolone derivatives (valmerins): potent cyclin-dependent kinase/glycogen synthase kinase 3 inhibitors with antiproliferative activities and antitumor effects in human tumor xenografts” (J Med Chem, 2012)
The source made the active and inactive calls. The calls are words filed in the database; no cut-off is given here.

Experiments:
[1] = molecular target: Dual specificity tyrosine-phosphorylation-regulated kinase 1A (Homo sapiens, UniProt Q13627); experiment: Inhibition of human recombinant GST-fused DYRK1A expressed in Escherichia coli using KKISGRLSPIMTEQ as substrate and [gamma-33P]-ATP after 30 mins by scintillation counting
[2] = molecular target: Glycogen synthase kinase-3 (Sus scrofa, UniProt B2LUN4+I6LNT8); experiment: Inhibition of porcine brain GSK-3alpha/beta using YRRAAVPPSPSLSRHSSPHQpSEDEEE as substrate and [gamma-33P]-ATP after 30 mins by scintillation counting
[3] = molecular target: Cyclin-dependent kinase 5/CDK5 activator 1 (Homo sapiens, UniProt Q00535); experiment: Inhibition of human recombinant CDK5/p25 using histone H1 as substrate and [gamma-33P]-ATP after 30 mins by scintillation counting; type: protein-complex assay
Sequence of Cyclin-dependent kinase 5/CDK5 activator 1 (Q00535 whole entry): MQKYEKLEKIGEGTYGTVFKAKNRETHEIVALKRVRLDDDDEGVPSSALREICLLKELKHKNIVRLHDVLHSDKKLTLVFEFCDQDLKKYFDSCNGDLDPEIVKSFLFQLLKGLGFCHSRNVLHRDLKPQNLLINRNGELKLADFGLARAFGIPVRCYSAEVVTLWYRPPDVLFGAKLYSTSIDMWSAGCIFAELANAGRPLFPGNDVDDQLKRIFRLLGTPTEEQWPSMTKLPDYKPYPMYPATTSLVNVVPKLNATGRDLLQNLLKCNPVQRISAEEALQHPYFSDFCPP
Sequence of Cyclin-dependent kinase 5/CDK5 activator 1 (Q15078 whole entry, further chain): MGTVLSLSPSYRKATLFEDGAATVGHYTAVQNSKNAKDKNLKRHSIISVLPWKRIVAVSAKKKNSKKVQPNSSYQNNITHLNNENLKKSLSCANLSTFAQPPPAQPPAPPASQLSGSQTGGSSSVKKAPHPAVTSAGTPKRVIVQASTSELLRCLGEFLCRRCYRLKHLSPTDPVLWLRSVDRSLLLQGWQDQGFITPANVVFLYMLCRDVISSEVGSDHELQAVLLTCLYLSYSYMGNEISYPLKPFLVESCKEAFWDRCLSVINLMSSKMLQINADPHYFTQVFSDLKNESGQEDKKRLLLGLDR

[4] = Inhibition of porcine brain CK1delta/epsilon using RRKHAAIGpSAYSITA as substrate and [gamma-33P]-ATP after 30 mins by scintillation counting; design: species or system Sus scrofa
[5] = Cytotoxicity against human skin fibroblasts cells after 48 hrs; settings: Fibroblast
[6] = system: NCI-H727; experiment: cells; settings: Homo sapiens, NCI-H727, 48 h
Description: Cytotoxicity against human NCI-H727 cells after 48 hrs

[7] = system: HCT-116; experiment: cells; settings: Homo sapiens, HCT-116, 48 h
Description: Cytotoxicity against human HCT116 cells after 48 hrs

[8] = system: PC-3; experiment: cells; settings: Homo sapiens, PC-3, 48 h
Description: Cytotoxicity against human PC3 cells after 48 hrs

[9] = system: MDA-MB-231; experiment: cells; settings: Homo sapiens, MDA-MB-231, 48 h
Description: Cytotoxicity against human MDA-MB-231 cells after 48 hrs

[10] = system: Huh-7; experiment: cells; settings: Homo sapiens, Huh-7, 48 h
Description: Cytotoxicity against human HuH7 cells after 48 hrs

[11] = system: Caco-2; experiment: cells; settings: Homo sapiens, Caco-2, 48 h
Description: Cytotoxicity against human Caco2 cells after 48 hrs

[12] = system: PC-3; experiment: Cell cycle arrest in human PC3 cells assessed as accumulation at G1 phase at 1 uM after 24 hrs; type: functional, cell-based
[13] = system: NCI-H727; experiment: Cell cycle arrest in human NCI-H727 cells assessed as accumulation at G1 phase at 1 uM after 24 hrs; type: functional, cell-based
[14] = system: HCT-116; experiment: Cell cycle arrest in human HCT116 cells assessed as accumulation at G1 phase at 1 uM after 24 hrs; type: functional, cell-based
[15] = system: Caco-2; experiment: Cell cycle arrest in human Caco2 cells assessed as accumulation at G1 phase at 1 uM after 24 hrs; type: functional, cell-based
[16] = system: MDA-MB-231; experiment: Cell cycle arrest in human MDA-MB-231 cells assessed as accumulation at G1 phase at 1 uM after 24 hrs; type: functional, cell-based
[17] = system: Huh-7; experiment: Cell cycle arrest in human HuH7 cells assessed as accumulation at G1 phase at 1 uM after 24 hrs; type: functional, cell-based
[18] = system: HCT-116; experiment: Induction of apoptosis in human HCT116 cells assessed as activation of caspase-3 at 1 uM after 24 hrs; type: functional, cell-based
[19] = system: HCT-116; experiment: Antitumor activity against human HCT116 cells xenografted in nude NMRI mouse assessed as tumor reduction at 10 mg/kg, ip administered 3 times in a week for 4 weeks by whole-body bioluminescent imaging; type: functional; design: scale not given: the % may be the effect or the level left; settings: route intraperitoneal
[20] = system: HCT-116; experiment: Antitumor activity against human HCT116 cells xenografted in nude NMRI mouse assessed as tumor reduction at 10 mg/kg, ip administered 3 times in a week for 4 weeks; type: functional; design: scale not given: the % may be the effect or the level left; settings: route intraperitoneal
[21] = system: Mus musculus; experiment: Toxicity in NMRI mouse assessed as blood formulation at 1 to 10 mg/kg, ip qd for 2 weeks; type: organism-based; design: dose 1-10 mg/kg, route intraperitoneal; settings: in vivo, 336 h
[22] = system: Mus musculus; experiment: Toxicity in NMRI mouse assessed as macroscopic examination of organs at 1 to 10 mg/kg, ip qd for 2 weeks; type: organism-based; design: dose 1-10 mg/kg, route intraperitoneal; settings: in vivo, 336 h
[23] = system: Mus musculus; experiment: Toxicity in NMRI mouse assessed as food consumption at 1 to 10 mg/kg, ip qd for 2 weeks; type: organism-based; design: dose 1-10 mg/kg, route intraperitoneal; settings: in vivo, 336 h
[24] = system: Mus musculus; experiment: Toxicity in NMRI mouse assessed as weight loss at 1 to 10 mg/kg, ip qd for 2 weeks; type: organism-based; design: dose 1-10 mg/kg, route intraperitoneal; settings: in vivo, 336 h
[25] = system: Mus musculus; experiment: Toxicity in NMRI mouse assessed as mortality at 1 to 10 mg/kg, ip qd for 2 weeks; type: organism-based; design: dose 1-10 mg/kg, route intraperitoneal; settings: in vivo, 336 h
[26] = system: NCI-H727; experiment: Cell cycle arrest in human NCI-H727 cells assessed as accumulation at G1 phase at 0.6 uM after 24 hrs; type: functional, cell-based
[27] = system: PC-3; experiment: Cell cycle arrest in human PC3 cells assessed as accumulation at G1 phase at 0.6 uM after 24 hrs; type: functional, cell-based
[28] = system: HCT-116; experiment: Cell cycle arrest in human HCT116 cells assessed as accumulation at G1 phase at 0.6 uM after 24 hrs; type: functional, cell-based
[29] = system: MDA-MB-231; experiment: Cell cycle arrest in human MDA-MB-231 cells assessed as accumulation at G1 phase at 0.6 uM after 24 hrs; type: functional, cell-based
[30] = system: Caco-2; experiment: Cell cycle arrest in human Caco2 cells assessed as accumulation at G1 phase at 0.6 uM after 24 hrs; type: functional, cell-based
[31] = system: Huh-7; experiment: Cell cycle arrest in human HuH7 cells assessed as accumulation at G1 phase at 0.6 uM after 24 hrs; type: functional, cell-based
[32] = system: HCT-116; experiment: Induction of apoptosis in human HCT116 cells assessed as activation of caspase-3 at 0.6 uM after 24 hrs; type: functional, cell-based
[33] = molecular target: Cyclin-dependent kinase 1 (Homo sapiens, UniProt P06493); experiment: Inhibition of CDK1
Sequence of Cyclin-dependent kinase 1 (P06493 whole entry): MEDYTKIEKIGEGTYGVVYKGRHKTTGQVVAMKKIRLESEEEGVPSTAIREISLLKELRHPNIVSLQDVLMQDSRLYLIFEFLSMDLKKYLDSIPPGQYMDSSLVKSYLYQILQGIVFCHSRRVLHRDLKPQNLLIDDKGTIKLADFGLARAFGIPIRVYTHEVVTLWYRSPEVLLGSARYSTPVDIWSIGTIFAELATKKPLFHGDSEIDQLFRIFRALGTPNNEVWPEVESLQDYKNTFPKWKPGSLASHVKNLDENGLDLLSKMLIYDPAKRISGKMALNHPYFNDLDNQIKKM

O=C(Nc1ccc2cccc(O)c2n1)Nc1cccc2c1C1CCCCN1C2=O (stereo not given)
IC50 [1]: > 10000 nM | IC50 [2]: 150 nM | IC50 [3]: 700 nM

O=C(Nc1cc(O)c2ccccc2n1)Nc1cccc2c1C1CCCCN1C2=O (stereo not given)
IC50 [1]: 5600 nM | IC50 [2]: 1200 nM | IC50 [3]: 10000 nM

O=C(Nc1ncccn1)Nc1cccc2c1C1CCCCN1C2=O (stereo not given)
IC50 [2]: 750 nM

O=C(Nc1cccc2c1C1CCCCN1C2=O)NC1CCCCC1 (stereo not given)
IC50 [1]: > 10000 nM | IC50 [2]: > 10000 nM | IC50 [3]: > 10000 nM

Cc1cc(NC(=O)Nc2cccc3c2C2CCCCN2C3=O)no1 (stereo not given)
IC50 [2]: 330 nM

Cc1nc(NC(=O)Nc2cccc3c2C2CCCCN2C3=O)cs1 (stereo not given)
IC50 [2]: 120 nM

O=C(Nc1cccc2c1C1CCCCN1C2=O)Nc1nc(Cl)c(Cl)c(Cl)c1Cl (stereo not given)
IC50 [1]: > 10000 nM | IC50 [2]: 4300 nM | IC50 [3]: 10000 nM

O=C(Nc1cccc(N2CCCCC2)n1)Nc1cccc2c1C1CCCCN1C2=O (stereo not given)
IC50 [4]: > 10000 nM | IC50 [1]: > 10000 nM | IC50 [2]: 360 nM | IC50 [3]: > 10000 nM

O=C(Nc1nc2ccccc2s1)Nc1cccc2c1C1CCCCN1C2=O (stereo not given)
IC50 [1]: > 10000 nM | IC50 [2]: 3500 nM

O=C(Nc1cccc2c1C1CCCCN1C2=O)Nc1ncc(F)cc1F (stereo not given)
IC50 [4]: > 10000 nM | IC50 [1]: > 10000 nM | IC50 [2]: 200 nM | IC50 [3]: 260 nM

O=C(Nc1ccc(-c2ccccc2)cn1)Nc1cccc2c1C1CCCCN1C2=O (stereo not given)
IC50 [4]: > 10000 nM | IC50 [1]: > 10000 nM | IC50 [2]: 140 nM | IC50 [3]: 4000 nM

O=C(Nc1cc(-c2ccccc2)on1)Nc1cccc2c1C1CCCCN1C2=O (stereo not given)
IC50 [2]: 270 nM

O=C(Nc1cscn1)Nc1cccc2c1C1CCCCN1C2=O (stereo not given)
IC50 [2]: 760 nM

O=C(Nc1ccncn1)Nc1cccc2c1C1CCCCN1C2=O (stereo not given)
IC50 [1]: > 10000 nM | IC50 [2]: 380 nM

O=C(Nc1cc(Br)ccn1)Nc1cccc2c1C1CCCCN1C2=O (stereo not given)
IC50 [5]: 500 nM | IC50 [4]: 1300 nM | IC50 [1]: 7600 nM | IC50 [2]: 22 nM | IC50 [3]: 25 nM | IC50 [6]: 400 nM | IC50 [7]: 100 nM | IC50 [8]: 100 nM | IC50 [9]: 500 nM | IC50 [10]: 5000 nM | IC50 [11]: 100 nM

Cn1ccc(NC(=O)Nc2cccc3c2C2CCCCN2C3=O)n1 (stereo not given)
IC50 [2]: 310 nM

O=C(Nc1cccc(F)n1)Nc1cccc2c1C1CCCCN1C2=O (stereo not given)
IC50 [5]: 400 nM | IC50 [2]: 26 nM | IC50 [3]: 90 nM | IC50 [6]: 500 nM | IC50 [7]: 90 nM | IC50 [8]: 200 nM | IC50 [9]: 90 nM | IC50 [10]: 120 nM | IC50 [11]: 150 nM

COc1cccnc1NC(=O)Nc1cccc2c1C1CCCCN1C2=O (stereo not given)
IC50 [4]: 2600 nM | IC50 [1]: 8100 nM | IC50 [2]: 1300 nM | IC50 [3]: 590 nM

O=C(Nc1ccc(O)cn1)Nc1cccc2c1C1CCCCN1C2=O (stereo not given)
IC50 [4]: ≥ 10000 nM | IC50 [1]: > 10000 nM | IC50 [2]: 4000 nM | IC50 [3]: 1300 nM

O=C(Nc1cnccn1)Nc1cccc2c1C1CCCCN1C2=O (stereo not given)
Activity [12]: Active | Activity [13]: Active | Activity [14]: Active | Activity [15]: Active | Activity [16]: Active | Activity [17]: Active | Activity [18]: Active

O=C(Nc1cccc2c1C1CCCCN1C2=O)Nc1ncccc1O (stereo not given)
IC50 [5]: 3000 nM | IC50 [4]: 1500 nM | IC50 [1]: 1800 nM | IC50 [2]: 51 nM | IC50 [3]: 37 nM | IC50 [6]: 800 nM | IC50 [7]: 1000 nM | IC50 [8]: 400 nM | IC50 [9]: 2000 nM | IC50 [10]: 500 nM | IC50 [11]: 6000 nM

O=C(Nc1cc[nH]n1)Nc1cccc2c1C1CCCCN1C2=O (stereo not given)
IC50 [2]: 470 nM

O=C(Nc1cc2ccccc2cn1)Nc1cccc2c1C1CCCCN1C2=O (stereo not given)
IC50 [5]: 4000 nM | IC50 [1]: > 10000 nM | IC50 [2]: 170 nM | IC50 [3]: 68 nM | IC50 [6]: 3000 nM | IC50 [7]: 1000 nM | IC50 [8]: 2000 nM | IC50 [9]: 3000 nM | IC50 [10]: 2000 nM | IC50 [11]: 1000 nM

O=C(Nc1ccccc1)Nc1cccc2c1C1CCCCN1C2=O (stereo not given)
IC50 [1]: > 10000 nM | IC50 [2]: > 10000 nM | IC50 [3]: > 10000 nM

O=C(Nc1ccc(Br)cn1)Nc1cccc2c1C1CCCCN1C2=O (stereo not given)
IC50 [1]: > 10000 nM | IC50 [2]: 76 nM

O=C(Nc1csc(-c2ccncc2)n1)Nc1cccc2c1C1CCCCN1C2=O (stereo not given)
IC50 [2]: 130 nM

O=C(Nc1cccc(Br)n1)Nc1cccc2c1C1CCCCN1C2=O (stereo not given)
IC50 [5]: > 25000 nM | IC50 [2]: 43 nM | IC50 [6]: > 25000 nM | IC50 [7]: > 25000 nM | IC50 [8]: > 25000 nM | IC50 [9]: > 25000 nM | IC50 [10]: > 25000 nM | IC50 [11]: > 25000 nM

O=C(Nc1ccccn1)Nc1cccc2c1C1CCCCN1C2=O (stereo not given)
Activity [19]: 51% | Activity [20]: 45.3% | Activity [21]: Non-toxic | Activity [22]: Non-toxic | Activity [23]: Non-toxic | Activity [24]: Non-toxic | Activity [25]: Non-toxic | Activity [26]: Active | Activity [27]: Active | Activity [28]: Active | Activity [29]: Active | Activity [30]: Active | Activity [31]: Active | Activity [32]: Active | IC50 [33]: 75 nM
